ChEMBL document CHEMBL1126802, “Structure-affinity relationship studies on 5-HT1A receptor ligands. 1. Heterobicyclic phenylpiperazines with N4-alkyl substituents” (J Med Chem, 1993)

Key:
[1] = target: T1, 5-hydroxytryptamine receptor 1A (Rattus norvegicus, UniProt P19327); assay: Displacement of radioligand [3H]2-(di-N-propylamino)-8-hydroxytetralin from 5-hydroxytryptamine 1A receptor in rat frontal cortex homogenate; assay type: tissue-based
T1 sequence (P19327 whole entry): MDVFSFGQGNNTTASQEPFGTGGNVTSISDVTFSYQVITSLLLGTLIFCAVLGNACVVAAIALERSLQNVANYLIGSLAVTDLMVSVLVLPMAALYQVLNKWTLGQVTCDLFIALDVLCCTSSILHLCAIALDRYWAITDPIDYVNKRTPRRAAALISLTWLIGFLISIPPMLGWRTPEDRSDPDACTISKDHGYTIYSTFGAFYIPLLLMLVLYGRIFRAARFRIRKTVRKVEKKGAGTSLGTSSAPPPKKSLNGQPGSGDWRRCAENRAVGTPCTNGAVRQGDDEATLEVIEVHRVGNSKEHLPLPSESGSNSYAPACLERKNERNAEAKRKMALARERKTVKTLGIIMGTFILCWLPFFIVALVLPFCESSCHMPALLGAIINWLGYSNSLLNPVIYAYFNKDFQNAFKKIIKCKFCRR

[2] = Ionization at 25 degree C; assay type: ADME
[3] = Ionization at 20 degree C; assay type: ADME
[4] = Ionization at 45 degree C; assay type: ADME
[5] = Ionization at 37 degree C; assay type: ADME
[6] = Ionization at 30 degree C; assay type: ADME
[7] = target: T1, 5-hydroxytryptamine receptor 1A; assay: Displacement of radioligand [3H]2-(di-N-propylamino)-8-hydroxytetralin from 5-hydroxytryptamine 1A receptor in rat frontal cortex homogenate (experiment 1); assay type: tissue-based
Opioid receptor [8] = target: T2, Opioid receptor (Mus musculus, UniProt P42866+P32300+P33534); assay: Tested for displacement of radioligand [3H]-Naloxone from opiate receptor; assay type: protein assay
Opioid receptor [9] = target: T2, Opioid receptor; assay: Tested for displacement of radioligand [3H]-Naloxone from opiate receptor; value ranges from 7-10 uM; assay type: protein assay

## CCCCCCCCCCN1CCN(c2cccc3ccoc23)CC1
[1]
  Ki: 8 nM

## CCCCCN1CCN(c2cccc3c2OCCO3)CC1
[2]
  pKa: 8.27
[1]
  Ki: 2.2 nM
[3]
  pKa: 8.41
[4]
  pKa: 7.91
[5]
  pKa: 8.06
[6]
  pKa: 8.21

## CCCN1CCN(c2cccc3ccoc23)CC1
[1]
  Ki: 29 nM
[5]
  pKa: 7.84

## CC(C)N1CCN(c2cccc3ccoc23)CC1
[1]
  Ki: 56 nM

## CCCCCN1CCN(c2cccc3ccoc23)CC1
[1]
  Ki: 0.81 nM
[5]
  pKa: > 7.7

## CCN1CCN(c2cccc3c2OCCO3)CC1
[3]
  pKa: 8.34
[5]
  pKa: 8

## CCCCCCCCN1CCN(c2cccc3ccoc23)CC1
[1]
  Ki: 1.7 nM

## CCCCCN1CCN(c2cccc(Cl)c2)CC1
[2]
  pKa: > 7.4
[7]
  Ki: 7.8 nM
[3]
  pKa: > 7.4
[4]
  pKa: > 7
[5]
  pKa: > 7.2
[6]
  pKa: > 7.5

## CCCCCCN1CCN(c2cccc3c2OCCO3)CC1
[1]
  Ki: 0.5 nM

## CCCCCCN1CCN(c2cccc3ccoc23)CC1
[1]
  Ki: 0.54 nM

## CCCN1CCN(c2cccc3c2OCCO3)CC1
[1]
  Ki: 80 nM
[3]
  pKa: 8.36
[5]
  pKa: 8.02

## c1cc(N2CCN(CC3CCCCC3)CC2)c2occc2c1
[1]
  Ki: 7.7 nM

## CN1CCN(c2cccc3c2OCCO3)CC1
[1]
  Ki: 24 nM
[3]
  pKa: 8.07
[5]
  pKa: 7.77

## CCCCN1CCN(c2cccc3ccoc23)CC1
[1]
  Ki: 5.9 nM
[5]
  pKa: 7.77

## c1cc(N2CCN(C3CCCCC3)CC2)c2occc2c1
[1]
  Ki: 64 nM

## c1cc2c(c(N3CCN(CCC4CCCCC4)CC3)c1)OCCO2
[1]
  Ki: 0.25 nM

## c1cc2c(c(N3CCN(CC4CCCCC4)CC3)c1)OCCO2
[1]
  Ki: 11 nM

## CCCCN1CCN(c2cccc3c2OCCO3)CC1
[1]
  Ki: 12 nM
[3]
  pKa: 8.41
[5]
  pKa: 8.06

## CCCCCCCCN1CCN(c2cccc3c2OCCO3)CC1
[1]
  Ki: 0.61 nM

## CCOC(=O)C1(c2ccccc2)CCN(CC)CC1
Opioid receptor [8]
  IC50: 5000 nM

## CN1CCN(c2cccc3ccoc23)CC1
[1]
  Ki: 8.1 nM
[5]
  pKa: 7.54

## CCCCCCCCCN1CCC(C(=O)OCC)(c2ccccc2)CC1
Opioid receptor [8]
  IC50: 150 nM

## CCCCCCCN1CCC(C(=O)OCC)(c2ccccc2)CC1
Opioid receptor [8]
  IC50: 55 nM

## CCN1CCN(c2cccc3ccoc23)CC1
[1]
  Ki: 23 nM
[5]
  pKa: 7.79

## CCCCN1CCC(C(=O)CC)(c2cccc(O)c2)CC1
Opioid receptor [8]
  IC50: 50000 nM

## c1cc(N2CCN(CC3CC3)CC2)c2occc2c1
[1]
  Ki: 20 nM

## CCCCCCN1CCC(C(=O)CC)(c2cccc(O)c2)CC1
Opioid receptor [8]
  IC50: 20000 nM

## CCCCCCCCN1CCC(C(=O)OCC)(c2ccccc2)CC1
Opioid receptor [8]
  IC50: 30 nM

## c1cc(N2CCNCC2)c2occc2c1
[1]
  Ki: 13 nM
[3]
  pKa: 8.84
[5]
  pKa: 8.44

## CCCN1CCC(C(=O)OCC)(c2ccccc2)CC1
Opioid receptor [8]
  IC50: 4000 nM

## CCCCCCCCCCN1CCC(C(=O)CC)(c2cccc(O)c2)CC1
Opioid receptor [8]
  IC50: 500000 nM

## CCCCN1CCC(C(=O)OCC)(c2ccccc2)CC1
Opioid receptor [8]
  IC50: 900 nM

## CCCCCCCCN1CCC(C(=O)CC)(c2cccc(O)c2)CC1
Opioid receptor [8]
  IC50: 200000 nM

## CCCCCCCCCN1CCC(C(=O)CC)(c2cccc(O)c2)CC1
Opioid receptor [8]
  IC50: 700000 nM

## CCCCCN1CCC(C(=O)OCC)(c2ccccc2)CC1
Opioid receptor [8]
  IC50: 400 nM

## CCCCCCCN1CCC(C(=O)CC)(c2cccc(O)c2)CC1
Opioid receptor [8]
  IC50: 20000 nM

## CCCCCCN1CCC(C(=O)OCC)(c2ccccc2)CC1
Opioid receptor [8]
  IC50: 200 nM

## CCCN1CCC(C(=O)CC)(c2cccc(O)c2)CC1
Opioid receptor [8]
  IC50: 200000 nM

## CCC(=O)C1(c2cccc(O)c2)CCN(CC)CC1
Opioid receptor [8]
  IC50: 400000 nM

## CCCCCCCCCCN1CCN(c2cccc3c2OCCO3)CC1
[1]
  Ki: 1 nM

## CCCCCN1CCC(C(=O)CC)(c2cccc(O)c2)CC1
Opioid receptor [8]
  IC50: 8000 nM

## CC(C)CN1CCN(c2cccc3ccoc23)CC1
[1]
  Ki: 64 nM

## COc1ccccc1N1CCNCC1
[1]
  Ki: 170 nM

## Clc1cccc(N2CCNCC2)c1 [CHLOROPHENYLPIPERAZINE]
[2]
  pKa: 8.6
[7]
  Ki: 200 nM
[3]
  pKa: 8.72
[4]
  pKa: 8.12
[5]
  pKa: 8.36
[6]
  pKa: 8.46

## c1cc2c(c(N3CCNCC3)c1)OCCO2 [ELTOPRAZINE]
[2]
  pKa: 8.99
[3]
  pKa: 9.18
[4]
  pKa: 8.55
[5]
  pKa: 8.74
[6]
  pKa: 8.88

## O=C1c2ccccc2S(=O)(=O)N1CCCCN1CCN(c2ncccn2)CC1 [IPSAPIRONE]
[1]
  Ki: 5.5 nM

## CCC(=O)C1(c2cccc(O)c2)CCN(C)CC1 [KETOBEMIDONE]
Opioid receptor [9]
  IC50: 7000 nM
